# Measured values from PMC9327782, “Benzoxazole derivatives as new VEGFR-2 inhibitors and apoptosis inducers: design, synthesis, in silico studies, and antiproliferative evaluation” (Journal of Enzyme Inhibition and Medicinal Chemistry, 2022).
# Like-named read-outs stand apart in the source and are kept apart here.
# Columns and labels:
# Assay type in all cases: cell-based, human
# [1] = system: HepG2 cell line; assay: In vitro anti-proliferative MTT assay, HepG2; settings: Homo sapiens
# Text: The cytotoxicity results were obtained as median growth inhibitory concentration (IC50).
# (§1) MTT assay protocol. This method was applied in accordance with the comprehensive description in Supplementary data. […]
# (§2) 5 Raw data of cytotoxity and VEGFR -2 assay […]
# (§3) Experimental of biological testing
# (§4) 1. In vitro anti-proliferative activity
# (§5) MTT assay protocol was applied to assess the anti-proliferative activity of the synthesized compounds. Two human cancer cell lines (MCF-7 and HepG-2) and one normal cell line (WI-38) were used in this test. At first, the cell lines were cultured in RPMI -1640 medium with 10% fetal bovine serum. Antibiotics (100 units/ml penicillin and100 µg/ml streptomycin ) were added at 37 °C in a 5% CO2 incubator. The cell lines were seeded in a 96-well plate at a density of 1.0 x 10^4 cells / well at 37 °C for 24 h under 5% CO2. After incubation, the cells were treated with different […]
# (§6) concentration of the synthesized compounds and incubated for 24 h. After 24 h of drug treatment, 20 µl of MTT solution at 5mg/ml was added and incubated for 4 h. Dimethyl sulfoxide (DMSO) in volume of 100 µl was added into each well to dissolve the purple formazan formed. The colorimetric assay was measured and recorded at absorbance of 570 nm using a plate reader (EXL 800, USA). The relative cell viability in percentage was calculated as (A570 of treated samples/A570 of untreated sample) X 100. […]
# [2] = system: WI-38 cell line; assay: In vitro cytotoxicity against normal cell line (MTT); parameters: LogIC50 best-fit value, WI-38: unit not given here
# Text: […]. Such values were very high in comparison to the corresponding values on cancer cell lines, which reflect high safety profile of the tested candidates towards normal cell lines.
# as §1, §2, §3, §4, §5, §6
# [3] = system: HepG2 cells; assay: Flow cytometry apoptosis analysis (Annexin V/PI)
# Protocol: In details, 32.45 and 2.86% for early and late apoptotic phases, respectively compared to control, (6.56%,5.34%,1.22%, respectively) (Figure 5 and Table 5).
# Apoptotic effect was applied in accordance with the comprehensive description in Supplementary data[36]^,[37]
# (§7) 4. Flow cytometry analysis for apoptosis
# Flow cytometry cell apoptosis analysis was used to investigate the apoptotic effect of the synthesized compounds. HepG2 cells were treated with compound 12l (10.50 µM) for 24 h, collected by trypsin, centrifuged, washed two successive times with PBS, suspended in 500 μl binding buffer, and double stained with 5 μl Annexin V-FITC and 5 μl PI in the dark at room temperature for 15 min. The stained cells were measured using Epics XL-MCL™ Flow Cytometer and analyzed using Flowing software. […]
# [4] = system: BAX; assay: Western blot, BAX level in HepG2 cells; settings: HepG2, 24 h
# Protocol: Compound 12lwas subjected to further cellular mechanistic study. The cellular levels of BAX and Bcl-2 were measured using the western blot technique after compound 12l was applied to HepG2 cells for 24 h.
# The western blot technique was applied in accordance with the comprehensive description in Supplementary data[38–40] […]
# The proteins expression of cleaved caspase‐3, BAX, and Bcl‐2 were determined using Western blot analysis. In brief, HepG2 cells were treated with control, or with the synthesized compounds.
# Then cells were lysed in 250 μL precold lysis buffer (pH 7.4: Tris‐Base [10 mM], NaCl [100 mM], ethylenediaminetetraacetic acid [EDTA, 25 mM], ethylene glycol bis (2‐aminoethyl) tetraacetic acid [EGTA, 25 mM], 1% [v/v] NP‐40, and 1% [v/v] Triton X‐100) supplemented with 1:350 protease:phosphatase inhibitors cocktail (Sigma). The cells were immediately frozen at −20°C for 1.5 hours for further lysis, collected by cell scraper, sonicated 3 × 10 seconds, and centrifuged (13000 rpm, 15 minutes). Total protein concentrations in the supernatant were determined colorimetrically using the Pierce 660 nm Protein Assay method (Thermo Fisher Scientific, Rockford, IL), with BSA as the standard. Equal amounts of protein (25 μg) samples were mixed with SDS‐loading buffer (pH 6.8: Tris‐HCl [700 mM], dithiothreitol [DTT, 600 mM], sodium dodecyl sulfate [SDS, 12%], glycerol [60%], and bromophenol blue [0.012%]), denatured by boiling at 95°C for 10 minutes, allowed to cool on ice for 15 minutes, vortexed vigorously for 30 seconds and loaded into SDS‐polyacrylamide gel and separated by an electrophoresis unit (Cleaver Scientific Ltd, UK), transferred onto polyvinylidene fluoride membranes (Bio‐Rad) for 35 minutes using a Trans‐Blot SD semi‐dry transfer cell (Bio‐Rad) at 250 mA and 22 V. Membranes were blocked with 5% (w/v) blotting grade dry milk (Bio‐Rad) in Tris‐buffered saline/Tween‐20 (TBS‐ T) (pH 7.5: Tris‐base [20 mM], NaCl [150 mM], and 0.05% [v/v] Tween‐ 20) while shaking for 1.5 hour at RT, and then incubated with the corresponding primary antibody against cleaved caspase‐3 antibody ([…], #9661; Cell Signaling Technology), β‐actin (1:2000, #A5060; Sigma), BAX (Biovision, USA) and Bcl‐2( Bioimaging, system, syngene, UK) for 9‐10 hours at 4°C in a […]
# three separate experiments. […]
# the synthesized compounds towards VEGFR-2. The crystal structure of VEGFR-2 was […]
# 2.03 Å). Sorafenib was used as reference ligand. To prepare the target protein, water molecules […]
# fields. […] The validation […]
# process was performed by redocking the co-crystallized ligand. The designed compounds together […]
# followed by energy minimization then prepared for docking. Docking process was carried through […]
# binding mode with target molecule.
# [5] = system: Caspase-3; assay: Western blot, caspase-3 level in HepG2 cells; settings: HepG2, 10.50 µM, 24 h
# Protocol: Caspase-3 has a key role in apoptosis initiation and execution[26]^,[27]. The western blot technique was used to investigate the effect of compound 12 l, the most promising member, on the caspase-3 level. HepG2 cells were treated with 12l (10.50 µM) for 24 h.
# The western blot technique was applied in accordance with the comprehensive description in Supplementary data[38–40]
# as §7
# Flow cytometry cell apoptosis analysis was used to investigate the apoptotic effect of the synthesized compounds. […] The stained cells were measured using Epics XL-MCL™ Flow Cytometer and analyzed using Flowing software.
# The proteins expression of cleaved caspase‐3, BAX, and Bcl‐2 were determined using Western blot analysis. […]
# Then cells were lysed in 250 μL precold lysis buffer (pH 7.4: Tris‐Base [10 mM], NaCl [100 mM], ethylenediaminetetraacetic acid [EDTA, 25 mM], ethylene glycol bis (2‐aminoethyl) tetraacetic acid [EGTA, 25 mM], 1% [v/v] NP‐40, and 1% [v/v] Triton X‐100) supplemented with 1:350 protease:phosphatase inhibitors cocktail (Sigma). […] Total protein concentrations in the supernatant were determined colorimetrically using the Pierce 660 nm Protein Assay method (Thermo Fisher Scientific, Rockford, IL), with BSA as the standard. […]
# [6] = supplement raw data, dose-response curve fit
# [7] = HepG2, 24 h, mean ± SEM of two experiments
smiles,measurement,setting,value
"Cc1ccc2oc(SCC(=O)Nc3ccc(C(=O)Nc4cccc(Cl)c4)cc3)nc2c1 [Compound 12l, N-(3-Chlorophenyl)-4–(2-((5-methylbenzo[d]oxazol-2-yl)thio)acetamido)benzamide]",IC50,"[1]; HepG2, 24 h, MTT, 24 h treatment, mean of three experiments, read-out: In vitro IC50 HepG2",10.5 ± 0.8 µM
same,IC50,"[1]; HepG2, supplement raw data, dose-response curve fit, read-out: LogIC50 best-fit value, HepG2 (converted)",10.5 µM
same,IC50,"[2]; WI-38, normal human lung cell line, MTT",37.8 µM
same,"HillSlope best-fit value, WI-38",[2]; [6],-0.4502
same,"LogIC50 best-fit value, WI-38",[2]; [6],1.577
same,Early apoptotic phase,"[3]; HepG2, 10.50 µM, 24 h",32.45%
same,Late apoptotic phase,"[3]; HepG2, 10.50 µM, 24 h",2.86%
same,Apoptosis Early (Right Bottom),[3]; [7],32.45 ± 3.13
same,Apoptosis Late (Right Top),[3]; [7],2.86 ± 0.21
same,Necrosis (Left Top),[3]; [7],0.14 ± 0.06
same,Viable (Left Bottom),"[3]; HepG2, 24 h, mean ± SEM of two experiments, in %",64.55 ± 3.43
same,Protein expression (normalized to β-actin) BAX,[4]; control = 1.00,3.40 ± 0.15
same,Protein expression (normalized to β-actin) BAX/Bcl-2 ratio,[4]; control = 1.00,6.83 ± 0.96
same,BAX level increase,[4]; versus control,3.40 fold
same,BAX/Bcl-2 ratio increase,[4]; versus control,6.83 fold
same,Protein expression (normalized to β-actin) Caspase-3,[5]; control = 1.00,2.98 ± 0.13
same,Caspase-3 level increase,[5]; versus control,2.98 fold
